Experimental data published in patent publication US11318111B2, “CCL5 inhibitors” (LAPKO INC., priority 2018, dated 2022).

Key:
rosacea = experiment: Topical treatment of patients with rosacea; assay type: in vivo, human; conditions: two patients, lotion form, 28 days; not in the untreated areas
Experimental: Rosacea: Two patients with rosacea were treated with Compound 25 for 28 days in a lotion form.

hand and facial eczema = experiment: Topical treatment of patients with hand and facial eczema; assay type: in vivo, human; conditions: four patients, topically applied in cream base over 14 days
Experimental: To test the effect of the compounds on treatment of human dermatologic disorders associated with increased CCL5 production by keratinocytes, Compound 11 and Compound 21 were formulated into a topically applied cream at a concentration of 7%. The compounds in the cream base were applied topically to human subjects suffering from dermatitis in an area of the skin with active skin lesions. The control was the topical cream base composition without the active compounds. Outcome was measured by reduction or disappearance to the lesion in the treated area vs the control area.
Eczema: Four patients with hand and facial eczema were treated with Compound 97 topically applied in a cream base over a period of 14 days. By day 7 the eczema had resolved in the area treated in three of the patients and by day 12 in the fourth patient. The eczema persisted in the areas not so treated.

Row | SMILES | rosacea in treated area at end of course of therapy (rosacea) | eczema resolved in treated area by day (fourth patient) (hand and facial eczema; the fourth patient) | eczema resolved in treated area by day (three of the patients) (hand and facial eczema; three of the patients, eczema persisted in untreated areas)
1 | CC(C)OC(=O)C(C)(C)Oc1ccc(C(F)(F)F)cc1 [Compound 25] | nearly disappeared | – | –
2 | CC(C)OC(=O)C(C)(C)Oc1ccc(C(=O)c2ccc(Cl)cc2)cc1 [Compound 97] | – | ≤ 12 days | ≤ 7 days
